Structures are written as SMILES. Like-named read-outs stand apart in the source and are kept apart here. Bridge positions count the residues as written; N and C are the ends. Square brackets hold non-standard residues; d marks the D form. Peptide text beside a SMILES is read from it. Nle = CCCC[C@H](N)C(=O)O

Test [1] has as its target T1, human Kv1.3 voltage-gated K+ channel (Homo sapiens, UniProt P22001).
T1 construct: host or cells: CHO-DUKX
The experiment in a line: cell-based. The conditions noted are these: inhibition of thallium flux, CHO-DUKX cells with human Kv1.3; read-out: IC50.

For test [2], the target named is Rat whole blood (Rattus norvegicus, UniProt P15384).
The mark [3] stands for this setting: inhibition of IL-17A release, thapsigargin, 24 Hr, at least 2 replicates.

Rat whole blood, sequence (P15384 whole entry): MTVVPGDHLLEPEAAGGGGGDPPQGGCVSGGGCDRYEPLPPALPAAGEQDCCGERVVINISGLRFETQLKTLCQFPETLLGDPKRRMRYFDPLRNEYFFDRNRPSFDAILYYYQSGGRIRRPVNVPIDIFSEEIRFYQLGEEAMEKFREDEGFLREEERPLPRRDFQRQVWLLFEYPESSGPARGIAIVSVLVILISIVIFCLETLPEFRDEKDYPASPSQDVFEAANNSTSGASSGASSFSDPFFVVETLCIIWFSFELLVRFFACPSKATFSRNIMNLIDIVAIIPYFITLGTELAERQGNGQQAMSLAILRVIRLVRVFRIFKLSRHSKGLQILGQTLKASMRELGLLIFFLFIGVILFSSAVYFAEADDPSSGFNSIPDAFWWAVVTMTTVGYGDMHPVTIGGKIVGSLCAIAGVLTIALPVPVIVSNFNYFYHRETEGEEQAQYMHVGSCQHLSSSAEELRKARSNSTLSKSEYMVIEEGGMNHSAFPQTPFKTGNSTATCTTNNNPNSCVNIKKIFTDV
T1 sequence (P22001 whole entry): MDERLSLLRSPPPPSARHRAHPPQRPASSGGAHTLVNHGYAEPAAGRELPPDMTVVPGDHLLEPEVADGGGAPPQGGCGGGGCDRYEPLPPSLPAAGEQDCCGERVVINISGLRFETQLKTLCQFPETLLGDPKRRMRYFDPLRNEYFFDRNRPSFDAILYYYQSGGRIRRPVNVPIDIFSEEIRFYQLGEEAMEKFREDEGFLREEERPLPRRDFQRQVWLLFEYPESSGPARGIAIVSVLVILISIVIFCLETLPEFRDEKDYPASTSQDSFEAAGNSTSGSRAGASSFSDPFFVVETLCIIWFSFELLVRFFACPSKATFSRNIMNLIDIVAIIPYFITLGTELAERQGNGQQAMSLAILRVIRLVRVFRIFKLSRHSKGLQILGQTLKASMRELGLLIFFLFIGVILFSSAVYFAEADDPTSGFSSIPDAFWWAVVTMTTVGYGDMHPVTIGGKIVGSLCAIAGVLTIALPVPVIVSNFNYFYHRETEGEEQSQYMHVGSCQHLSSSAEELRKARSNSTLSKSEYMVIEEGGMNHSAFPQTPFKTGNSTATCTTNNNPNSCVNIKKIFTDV

`CCCC[C@@H]1NC(=O)[C@@H]2CSSC[C@H](NC(=O)[C@H](CCCNC(=N)N)NC(=O)[C@H](CC(C)C)NC(C)=O)C(=O)N[C@@H](CO)C(=O)N[C@@H](C)C(=O)N[C@@H](CO)C(=O)N[C@@H](C(C)C)C(=O)N[C@@H](CCC(=O)O)C(=O)N[C@H]3CSSC[C@H](NC(=O)[C@H](CCCCN)NC(=O)[C@H](CCCCN)NC(=O)[C@H](CC(N)=O)NC1=O)C(=O)N[C@@H](CCCCN)C(=O)N[C@H](C(=O)N[C@@H](Cc1ccc(O)cc1)C(=O)N1CCC[C@H]1C(=O)N[C@@H](CCCNC(=N)N)C(=O)O)CSSC[C@H](NC(=O)[C@H](CCCCN)NC(=O)[C@H](CCC(N)=O)NC(=O)[C@H](CCCCN)NC3=O)C(=O)N[C@@H](CC(C)C)C(=O)N[C@@H](C)C(=O)N[C@@H](C)C(=O)N[C@@H]([C@@H](C)CC)C(=O)NCC(=O)N[C@@H](CO)C(=O)N[C@@H]([C@@H](C)CC)C(=O)N[C@@H](Cc1ccccc1)C(=O)NCC(=O)N[C@@H](CCCCN)C(=O)N2` [Compound 115] (Ac-LRCSASVECKQKCLAAIGSIFGKC[Nle]NKKCKCYPR-OH; disulfide 3-24, 9-29, 13-31): the IC50 (commonly the concentration needed to halve the response being measured) in test [1] was 0.31 nM; in test [2], at most 1 nM; in test [2] (setting [3]), 0.9 nM.
`CCCC[C@H](NC(=O)[C@@H]1CCCN1)C(=O)N[C@@H](CC(=O)O)C(=O)N[C@@H](CCCC)C(=O)N[C@@H](CCCNC(=N)N)C(=O)N[C@H]1CSSC[C@@H]2NC(=O)[C@H](CCCCN)NC(=O)CNC(=O)[C@H](Cc3ccccc3)NC(=O)[C@H]([C@@H](C)CC)NC(=O)[C@@H]3CSSC[C@@H](C(=O)O)NC(=O)[C@@H]4CCCN4C(=O)[C@H](Cc4ccc(O)cc4)NC(=O)[C@@H]4CSSC[C@H](NC(=O)[C@H](CCCCN)NC(=O)[C@H](CCC(N)=O)NC(=O)[C@H](CCCCN)NC(=O)[C@H](CSSC[C@H](NC(=O)[C@H](CCCCN)NC(=O)[C@H](CCCCN)NC(=O)[C@H](CC(N)=O)NC(=O)[C@H](CCCC)NC2=O)C(=O)N[C@@H](CCCCN)C(=O)N4)NC(=O)[C@H](CCC(=O)O)NC(=O)[C@H](C(C)C)NC(=O)[C@H](CO)NC(=O)[C@H](C)NC(=O)[C@H](CO)NC1=O)C(=O)N[C@@H](CC(C)C)C(=O)N[C@@H](CCCCN)C(=O)N[C@@H](C)C(=O)N[C@@H]([C@@H](C)CC)C(=O)NCC(=O)N3` [Compound 88] (H-P[Nle]D[Nle]RCSASVECKQKCLKAIGCIFGKC[Nle]NKKCKCYPC-OH; disulfide 6-27, 12-32, 16-34, 22-37): the IC50 in test [1] is 0.27 nM; in test [2] (setting [3]) it was 1.1 nM.
The corresponding values for `CCCC[C@@H]1NC(=O)[C@@H]2CSSC[C@H](N)C(=O)N[C@@H](CO)C(=O)N[C@@H](C)C(=O)N[C@@H](CO)C(=O)N[C@@H](C(C)C)C(=O)N[C@@H](CCC(=O)O)C(=O)N[C@H]3CSSC[C@H](NC(=O)[C@H](CCCCN)NC(=O)[C@H](CCCCN)NC(=O)[C@H](CC(N)=O)NC1=O)C(=O)N[C@@H](CCCCN)C(=O)N[C@H]1CSSC[C@H](NC(=O)[C@H](CCCCN)NC(=O)[C@H](CCC(N)=O)NC(=O)[C@H](CCCCN)NC3=O)C(=O)N[C@@H](CC(C)C)C(=O)N[C@@H](CCCCN)C(=O)N[C@@H](C)C(=O)N[C@@H]([C@@H](C)CC)C(=O)NCC(=O)N[C@@H](CSSC[C@@H](C(N)=O)NC(=O)[C@@H]3CCCN3C(=O)[C@H](Cc3ccc(O)cc3)NC1=O)C(=O)N[C@@H]([C@@H](C)CC)C(=O)N[C@@H](Cc1ccccc1)C(=O)NCC(=O)N[C@@H](CCCCN)C(=O)N2` [Compound 86] (H-CSASVECKQKCLKAIGCIFGKC[Nle]NKKCKCYPC-NH2; disulfide 1-22, 7-27, 11-29, 17-32) are 0.2 nM and 1.1 nM.

Source of the values: patent US11780893B2, “Kv1.3 blockers” (Zealand Pharma A/S, priority 2019, dated 2023).
